From patent US9023789B2, “Amylin analogs and pharmaceutical compositions thereof” (Novo Nordisk A/S, priority 2012, dated 2015) come the findings set out here.

One test relates to Sprague Dawley (SD) rats. As to the kind of experiment: ASSAY (I) efficacy testing on appetite (food intake) using an ad libitum fed rat model. Particulars: rat, 30 nmol/kg. The class given is in vivo. Put shortly:
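Individual food consumption was logged each hour up to 7 h and again at 24 h, occasionally 48 h, with Grubbs-test outliers removed. Each 200–250 g Sprague Dawley rat, free-feeding in its home cage under reversed lighting, received a single ip, po or sc dose of 0.01–3 mg/kg at lights-off, alongside a vehicle group.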

For test [1], the target named is T1, human amylin 3(a) receptor (human calcitonin receptor + RAMP-3) in BHK570 cells (Homo sapiens, UniProt O60896+P30988).
T1 construct: expressed in transfected cells
Description: ASSAY (II)a functional assay, human amylin receptor (CRE luciferase). The class given is cell-based. The following applies: for EC50: human amylin receptor functional potency, assay (II), read-out: hAmylin-R funct. EC50. Put shortly: (§1)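 Readout is luminescence from a cAMP-responsive CRE-luc reporter, developed with LucLite for 30 min at room temperature. Cells were treated for 3 h at 37 °C in 10% FBS/DMEM buffered with 10 mM Hepes (pH 7.4).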

For test [2], the target named is T2, human calcitonin (a) receptor in BHK570 cells (Homo sapiens, UniProt P30988).
T2 construct: expressed in transfected cells
T2 sequence (P30988 25-474): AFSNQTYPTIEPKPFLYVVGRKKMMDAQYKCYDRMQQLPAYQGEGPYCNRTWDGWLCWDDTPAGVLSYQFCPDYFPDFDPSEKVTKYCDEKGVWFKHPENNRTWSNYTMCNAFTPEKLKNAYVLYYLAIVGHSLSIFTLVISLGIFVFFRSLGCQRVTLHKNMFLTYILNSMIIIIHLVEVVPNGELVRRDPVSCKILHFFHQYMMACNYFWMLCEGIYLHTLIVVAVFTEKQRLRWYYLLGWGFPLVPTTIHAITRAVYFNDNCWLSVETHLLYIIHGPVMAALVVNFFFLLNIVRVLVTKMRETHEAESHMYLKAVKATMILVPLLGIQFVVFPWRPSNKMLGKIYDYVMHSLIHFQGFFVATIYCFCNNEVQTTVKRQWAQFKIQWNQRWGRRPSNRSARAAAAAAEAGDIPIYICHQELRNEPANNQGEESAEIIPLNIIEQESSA
As to the kind of experiment: ASSAY (II)a functional assay, human calcitonin receptor (CRE luciferase). It counts as cell-based. Particulars: read-out: hCTR funct. EC50. Put shortly:
as §1

Test [3] has as its target T3, human amylin receptor (membranes from Amylin 3(a)/CRE-luc cells) (Homo sapiens, UniProt O60896+P30988).
T3 construct: expressed in transfected cells
T3 sequence (P30988 25-474): T2 sequence (P30988 25-474)
T3 sequence (O60896 24-148 partner): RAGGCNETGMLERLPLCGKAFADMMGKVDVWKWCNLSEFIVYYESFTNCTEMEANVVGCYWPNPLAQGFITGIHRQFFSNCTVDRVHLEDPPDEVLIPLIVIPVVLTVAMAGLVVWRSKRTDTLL
Description: ASSAY (V) binding to the human amylin receptor (SPA, 125I-rat amylin).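 As to all read-outs here: competition binding of cell membranes (35 ng/µL) mixed with SPA beads in 384-well plates at 40 µL total volume, read by scintillation counting.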 Particulars: for IC50: Table 4, read-out: hAmylin-R bind IC50.

In the next test the target is T4, rat calcitonin receptor (Rattus norvegicus, UniProt P32214).
T4 construct: expressed in transfected cells; host or cells: BHK tk'ts 13 (transient, FuGENE 6), membranes
T4 sequence (P32214 25-479 isoform P32214-2 limits assumed): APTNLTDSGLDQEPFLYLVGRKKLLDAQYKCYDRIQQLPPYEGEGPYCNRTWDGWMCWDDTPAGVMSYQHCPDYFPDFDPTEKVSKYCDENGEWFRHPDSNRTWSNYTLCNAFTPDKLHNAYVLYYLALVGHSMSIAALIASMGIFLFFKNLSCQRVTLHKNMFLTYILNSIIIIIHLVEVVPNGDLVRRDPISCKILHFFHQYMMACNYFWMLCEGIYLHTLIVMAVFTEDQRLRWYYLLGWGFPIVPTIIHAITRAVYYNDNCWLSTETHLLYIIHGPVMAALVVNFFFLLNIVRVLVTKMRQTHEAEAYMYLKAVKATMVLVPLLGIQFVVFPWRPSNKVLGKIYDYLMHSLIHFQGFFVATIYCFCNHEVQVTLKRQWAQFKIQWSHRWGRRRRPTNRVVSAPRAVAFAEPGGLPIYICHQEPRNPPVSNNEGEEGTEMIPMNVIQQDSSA
Description: ASSAY (VIII) binding to the rat calcitonin receptor. Particulars: Table 7, read-out: rCTR bind IC50. Put shortly:
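BHK tk′ts 13 cells, transient rat calcitonin receptor transfection; DMEM + 10% FBS; harvest ~48 h post-transfection; membrane prep.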

[4] abbreviates: hCTR funct. EC50 divided by hAmylin-R funct. EC50.
The mark [5] stands for this setting: hCTR funct. EC50 over hAmylin-R funct. EC50.
[6] abbreviates: human functional selectivity: hCTR funct. EC50 / hAmylin-R funct. EC50.
The mark [7] stands for this setting: Table 5, selectivity, hCTR bind IC50 / hAmylin-R bind IC50.
Where [8] appears, read: Table 5a, selectivity, hCTR bind IC50 / hAmylin-R bind IC50.
Setting [9] is: Table 5b, selectivity, hCTR bind IC50 / hAmylin-R bind IC50.
[10] abbreviates: Table 5c, selectivity, hCTR bind IC50 / hAmylin-R bind IC50.
[11] abbreviates: Table 7, human binding selectivity, included for comparison.
The mark [12] stands for this setting: Table 7a (preferred compounds), human binding selectivity, included for comparison.
Setting [13] is: ratio of human calcitonin receptor binding IC50 to human amylin receptor binding IC50.

Numbered stars: 1 amine (or outer) side, 2 acyl side, 3 side chain; on linkers, the order of the positions; unused ones are H or OH. Bridge positions count the residues as written; N and C are the ends. Side chains are listed from the residue outwards. Peptide text beside a SMILES is read from it. * marks the point of attachment. C20 diacid = O=C(O)CCCCCCCCCCCCCCCCCCC(=O)*; γGlu = O=C(O)[C@H](CCC(=O)[*:2])N[*:1]

For the molecule `CC[C@H](C)[C@H](NC(=O)[C@H](C)NC(=O)CNC(=O)[C@H](Cc1ccccc1)NC(=O)[C@H](CC(N)=O)NC(=O)[C@@H]1CCCN1C(=O)[C@H](CO)NC(=O)[C@H](CO)NC(=O)[C@H](Cc1c[nH]cn1)NC(=O)[C@H](CCCNC(=N)N)NC(=O)[C@H](CC(C)C)NC(=O)[C@H](Cc1ccccc1)NC(=O)[C@H](Cc1c[nH]cn1)NC(=O)[C@H](C)NC(=O)[C@H](CC(C)C)NC(=O)[C@H](CCCNC(=N)N)NC(=O)[C@H](CCC(N)=O)NC(=O)[C@@H](NC(=O)[C@H](C)NC(=O)[C@@H]1CSSC[C@H](NC(=O)[C@@H](N)CCCCNC(=O)CC[C@H](NC(=O)CCCCCCCCCCCCCCCCCCC(=O)O)C(=O)O)C(=O)N[C@@H](CC(N)=O)C(=O)N[C@@H]([C@@H](C)O)C(=O)N[C@@H](C)C(=O)N[C@@H]([C@@H](C)O)C(=O)N1)[C@@H](C)O)C(=O)N1CCC[C@H]1C(=O)N[C@@H](CO)C(=O)N[C@@H](CO)C(=O)N[C@H](C(=O)N[C@@H](CC(N)=O)C(=O)N[C@H](C(=O)NCC(=O)N[C@@H](CCCNC(=N)N)C(=O)N[C@@H](CC(N)=O)C(=O)N[C@H](C(=O)N[C@@H](Cc1ccc(O)cc1)C(N)=O)[C@@H](C)O)C(C)C)[C@@H](C)O` [Example 85] (H-K([γGlu-C20 diacid])CNTATCATQRLAHFLRHSSPNFGAIPSSTNVGRNTY-NH2; disulfide 2-7 (inferred); N-terminus assumed), the “Food intake reduction 0-24 h 30 nmol/kg (%)” value in the test with Sprague Dawley (SD) rats is on record as 30%. Further, in the test with Sprague Dawley (SD) rats, the “Food intake reduction 24-48 h 30 nmol/kg (%)” value was determined as 6%. In addition, the “Ratio hCT/hAmylin funct.” value in test [1] (setting [4]), in test [1] (setting [5]) and in test [1] (setting [6]) was 26.6 each time. The concentration giving a half-maximal response (EC50) turned out to be 0.146 nM in test [1] and 3.88 nM in test [2]. Also, the results for the concentration for half-maximal inhibition (IC50) (in test [3]; on rat calcitonin receptor) were 0.876 nM and 146 nM, respectively. The “Ratio hCT/hAmylin binding” value in test [3] (setting [7]), in test [3] (setting [8]), in test [3] (setting [9]), in test [3] (setting [10]), in test [3] (setting [11]) and in test [3] (setting [12]) was 91.8 throughout. Further, the “Ratio hCT/hAmylin binding” value in test [3] (setting [13]) is reported as 91.8.
As for `CC[C@H](C)[C@H](NC(=O)[C@H](C)NC(=O)CNC(=O)[C@H](Cc1ccccc1)NC(=O)[C@H](CC(N)=O)NC(=O)[C@@H]1CCCN1C(=O)[C@H](CO)NC(=O)[C@H](CO)NC(=O)[C@H](Cc1c[nH]cn1)NC(=O)[C@H](CCCNC(=N)N)NC(=O)[C@H](CC(C)C)NC(=O)[C@H](Cc1ccccc1)NC(=O)[C@H](CC(N)=O)NC(=O)[C@H](C)NC(=O)[C@H](CC(C)C)NC(=O)[C@H](CCCNC(=N)N)NC(=O)[C@H](CCC(N)=O)NC(=O)[C@@H](NC(=O)[C@H](C)NC(=O)[C@@H]1CSSC[C@H](NC(=O)[C@@H](N)CCCCNC(=O)CC[C@H](NC(=O)CC[C@H](NC(=O)CCCCCCCCCCCCCCCCCCC(=O)O)C(=O)O)C(=O)O)C(=O)N[C@@H](CC(N)=O)C(=O)N[C@@H]([C@@H](C)O)C(=O)N[C@@H](C)C(=O)N[C@@H]([C@@H](C)O)C(=O)N1)[C@@H](C)O)C(=O)N1CCC[C@H]1C(=O)N[C@@H](CO)C(=O)N[C@@H](CO)C(=O)N[C@H](C(=O)N[C@@H](CC(N)=O)C(=O)N[C@H](C(=O)NCC(=O)N[C@@H](Cc1c[nH]cn1)C(=O)N[C@@H](CC(N)=O)C(=O)N[C@H](C(=O)N[C@@H](Cc1ccc(O)cc1)C(N)=O)[C@@H](C)O)C(C)C)[C@@H](C)O` [Example 86] (H-K([γGlu-γGlu-C20 diacid])CNTATCATQRLANFLRHSSPNFGAIPSSTNVGHNTY-NH2; disulfide 2-7), the “Food intake reduction 0-24 h 30 nmol/kg (%)” value with Sprague Dawley (SD) rats was 48%. Besides, the “Food intake reduction 24-48 h 30 nmol/kg (%)” value in the test on Sprague Dawley (SD) rats came out at 26%. The “Ratio hCT/hAmylin funct.” value in test [1] (setting [4]), in test [1] (setting [5]) and in test [1] (setting [6]) was 64.4 in each case. Moreover, the EC50 in test [1] was found to be 0.298 nM; in test [2], 19.2 nM. The results for the IC50 (in test [3]; at rat calcitonin receptor) were 0.833 nM and 352 nM, respectively. Also, the “Ratio hCT/hAmylin binding” value in test [3] (setting [7]), in test [3] (setting [8]), in test [3] (setting [9]), in test [3] (setting [10]), in test [3] (setting [11]) and in test [3] (setting [12]) was 159.3 each time. The “Ratio hCT/hAmylin binding” value in test [3] (setting [13]) is listed as 159.3.
Regarding `CC[C@H](C)[C@H](NC(=O)[C@H](C)NC(=O)CNC(=O)[C@H](Cc1ccccc1)NC(=O)[C@H](CC(N)=O)NC(=O)[C@@H]1CCCN1C(=O)[C@H](CO)NC(=O)[C@H](CO)NC(=O)[C@H](Cc1c[nH]cn1)NC(=O)[C@H](CCCNC(=N)N)NC(=O)[C@H](CC(C)C)NC(=O)[C@H](Cc1ccccc1)NC(=O)[C@H](CCC(=O)O)NC(=O)[C@H](C)NC(=O)[C@H](CC(C)C)NC(=O)[C@H](CCCNC(=N)N)NC(=O)[C@H](CCC(N)=O)NC(=O)[C@@H](NC(=O)[C@H](C)NC(=O)[C@@H]1CSSC[C@H](NC(=O)[C@@H](N)CCCCNC(=O)CC[C@H](NC(=O)CC[C@H](NC(=O)CCCCCCCCCCCCCCCCCCC(=O)O)C(=O)O)C(=O)O)C(=O)N[C@@H](CC(N)=O)C(=O)N[C@@H]([C@@H](C)O)C(=O)N[C@@H](C)C(=O)N[C@@H]([C@@H](C)O)C(=O)N1)[C@@H](C)O)C(=O)N1CCC[C@H]1C(=O)N[C@@H](CO)C(=O)N[C@@H](CO)C(=O)N[C@H](C(=O)N[C@@H](CC(N)=O)C(=O)N[C@H](C(=O)NCC(=O)N[C@@H](Cc1c[nH]cn1)C(=O)N[C@@H](CC(N)=O)C(=O)N[C@H](C(=O)N[C@@H](Cc1ccc(O)cc1)C(N)=O)[C@@H](C)O)C(C)C)[C@@H](C)O` [Example 87] (H-K([γGlu-γGlu-C20 diacid])CNTATCATQRLAEFLRHSSPNFGAIPSSTNVGHNTY-NH2; disulfide 2-7), the “Food intake reduction 0-24 h 30 nmol/kg (%)” value with Sprague Dawley (SD) rats is given as 29%. Besides, in the test on Sprague Dawley (SD) rats, the “Food intake reduction 24-48 h 30 nmol/kg (%)” value is listed as 20%. The “Ratio hCT/hAmylin funct.” value in test [1] (setting [4]), in test [1] (setting [5]) and in test [1] (setting [6]) was 3.8 throughout. The EC50 stood at 0.285 nM in test [1] and 1.09 nM in test [2]. Further, the 50% inhibitory concentration (IC50) in test [3] stood at 0.633 nM; on rat calcitonin receptor it was 94.5 nM. Moreover, the “Ratio hCT/hAmylin binding” value in test [3] (setting [7]), in test [3] (setting [8]), in test [3] (setting [9]), in test [3] (setting [10]), in test [3] (setting [11]) and in test [3] (setting [12]) was 35.6 each time. Besides, in test [3] (setting [13]), the “Ratio hCT/hAmylin binding” value stood at 35.6.

What is called EC50 is the concentration needed to bring the measured effect to its halfway point. One may read the IC50 as the concentration needed to halve the response being measured.
